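Assay format: 96-well plates, 48-hour exposure. The concentration for full growth arrest is given as TGI.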
What was measured:
Assay in all cases: NCI anticancer screen, dose series, 48 h
[1] = tested on: SR leukemia
[2] = tested on: KM12 colon
[3] = tested on: CAKI-1 renal
[4] = tested on: 786-0 renal
[5] = tested on: NCI-H460 lung
[6] = tested on: SW-620 colon
[7] = tested on: SF-295 CNS
[8] = tested on: M14 melanoma
[9] = tested on: LXFL 529 NSCLC
[10] = tested on: CCRF-CEM leukemia
[11] = tested on: EKVX NSCLC
[12] = tested on: HCT-15 colon
[13] = tested on: UO-31 renal
[14] = tested on: RPMI-8226 leukemia
[15] = tested on: HOP-62 NSCLC
[16] = tested on: SNB-75 CNS
[17] = tested on: RXF-631 renal
[18] = tested on: NCI-H522 lung
[19] = tested on: DMS 114 small cell lung
[20] = tested on: UACC-62 melanoma
[21] = tested on: IGROV1 ovarian
[22] = tested on: LOX IMVI melanoma
[23] = tested on: KM20L2 colon
[24] = tested on: SK-MEL-28 melanoma
[25] = tested on: U251 CNS
[26] = tested on: OVCAR-4 ovarian
[27] = tested on: COLO 205 colon
[28] = tested on: HCC-2998 colon
[29] = tested on: MALME-3M melanoma
[30] = tested on: OVCAR-8 ovarian
[31] = tested on: HCT-116 colon
[32] = tested on: SK-OV-3 ovarian
[33] = tested on: SK-MEL-2 melanoma
[34] = tested on: SNB-78 CNS
[35] = tested on: DMS 273 small cell lung
[36] = tested on: SK-MEL-5 melanoma
[37] = tested on: OVCAR-3 ovarian
[38] = tested on: OVCAR-5 ovarian
[39] = tested on: UACC-257 melanoma
[40] = tested on: NCI-H23 lung
[41] = tested on: SF-268 CNS
[42] = tested on: NCI-H226 lung
[43] = tested on: MOLT-4 leukemia
[44] = tested on: SN12C renal
[45] = tested on: K-562 leukemia
[46] = tested on: DLD-1 colon
[47] = tested on: M19-MEL melanoma
[48] = tested on: A549 NSCLC
[49] = tested on: SNB-19 CNS
[50] = tested on: TK-10 renal
[51] = tested on: HT29 colon
[52] = tested on: ACHN renal
[53] = tested on: A498 renal
[54] = tested on: SF-539 CNS
[55] = tested on: HL-60(TB) leukemia
[56] = tested on: HOP-18 NSCLC
[57] = tested on: HOP-92 NSCLC

CC1(C)OC(=O)C(C#N)=C1/C=C/c1coc2ccc(Cl)cc2c1=O showed a TGI [1] of over 100 µM, a TGI [2] of over 100 µM and a TGI [3] of 57.5 µM. For the same compound, the TGI [4] was over 100 µM, the TGI [5] was 43.8 µM and the TGI [6] was over 100 µM. For the same compound, the TGI [7] was over 100 µM, the TGI [8] was over 100 µM and the TGI [9] was over 100 µM. The TGI [10] was 87 µM, the TGI [11] was over 100 µM and the TGI [12] was 87.2 µM. It also gave a TGI [13] of 83.6 µM, a TGI [14] of over 100 µM and a TGI [15] of 79.3 µM. The TGI [16] was 53.5 µM, the TGI [17] was over 100 µM and the TGI [18] was over 100 µM. The TGI [19] was over 100 µM, the TGI [20] was 89.8 µM and the TGI [21] was over 100 µM. It also gave a TGI [22] of 40.5 µM, a TGI [23] of over 100 µM and a TGI [24] of over 100 µM. For the same compound, the TGI [25] was over 100 µM, the TGI [26] was 55 µM and the TGI [27] was over 100 µM. It also gave a TGI [28] of over 100 µM, a TGI [29] of 66.1 µM and a TGI [30] of 74.6 µM. The TGI [31] was over 100 µM, the TGI [32] was 69.7 µM and the TGI [33] was 50.9 µM. It also gave a TGI [34] of over 100 µM, a TGI [35] of over 100 µM and a TGI [36] of 53.5 µM. It also gave a TGI [37] of 46.2 µM, a TGI [38] of over 100 µM and a TGI [39] of over 100 µM. The TGI [40] was 52 µM, the TGI [41] was over 100 µM and the TGI [42] was 92.6 µM. The TGI [43] was 94.1 µM, the TGI [44] was 96 µM and the TGI [45] was over 100 µM. The TGI [46] was 98 µM, the TGI [47] was over 100 µM and the TGI [48] was over 100 µM. It also gave a TGI [49] of over 100 µM.

COc1ccc2c(c1)C(=O)C1CC(=O)CCC21 (stereo unspecified) was tested, and the TGI [1] was over 100 µM, the TGI [2] was over 100 µM and the TGI [3] was over 100 µM. The TGI [50] was over 100 µM, the TGI [4] was over 100 µM and the TGI [5] was over 100 µM. It also gave a TGI [6] of over 100 µM, a TGI [7] of over 100 µM and a TGI [8] of over 100 µM. The TGI [9] was over 100 µM, the TGI [10] was over 100 µM and the TGI [11] was over 100 µM. The TGI [12] was over 100 µM, the TGI [13] was over 100 µM and the TGI [14] was over 100 µM. It also gave a TGI [15] of over 100 µM, a TGI [16] of over 100 µM and a TGI [17] of over 100 µM. The TGI [18] was over 100 µM, the TGI [19] was over 100 µM and the TGI [51] was over 100 µM. It also gave a TGI [20] of over 100 µM, a TGI [21] of over 100 µM and a TGI [22] of over 100 µM. For the same compound, the TGI [23] was over 100 µM, the TGI [24] was over 100 µM and the TGI [25] was over 100 µM. It also gave a TGI [26] of over 100 µM, a TGI [27] of over 100 µM and a TGI [28] of over 100 µM. For the same compound, the TGI [29] was over 100 µM, the TGI [30] was over 100 µM and the TGI [52] was over 100 µM. It also gave a TGI [31] of over 100 µM, a TGI [32] of over 100 µM and a TGI [33] of over 100 µM. For the same compound, the TGI [53] was over 100 µM, the TGI [34] was over 100 µM and the TGI [35] was over 100 µM. For the same compound, the TGI [36] was over 100 µM, the TGI [37] was over 100 µM and the TGI [38] was over 100 µM. It also gave a TGI [39] of over 100 µM, a TGI [54] of over 100 µM and a TGI [40] of over 100 µM. It also gave a TGI [41] of over 100 µM, a TGI [42] of over 100 µM and a TGI [43] of over 100 µM. It also gave a TGI [55] of over 100 µM, a TGI [44] of over 100 µM and a TGI [56] of over 100 µM. For the same compound, the TGI [45] was over 100 µM, the TGI [46] was over 100 µM and the TGI [47] was over 100 µM. The TGI [57] was over 100 µM, the TGI [48] was over 100 µM and the TGI [49] was over 100 µM.
